Assay results from patent US8604053B2, “TRPV1 antagonists” (AbbVie Inc., priority 2008, dated 2013).

Columns and labels:
human TRPV1 = target: T1, human TRPV1 (Homo sapiens, UniProt Q8NER1); assay: Acid activation assay, ratiometric calcium imaging; format: cell-based; details: HEK293-F cells expressing human TRPV1, Example 56 at 3 μM; for block of TRPV1-mediated increase in intracellular calcium concentration in response to pH 5.5: acid pH 5.5; for block of TRPV1-mediated increase in intracellular calcium concentration in response to capsaicin: capsaicin 1 μM
T1 construct: expressed in transfected cells; host or cells: HEK293-F cells, transient transfection
T1 sequence (Q8NER1 whole entry): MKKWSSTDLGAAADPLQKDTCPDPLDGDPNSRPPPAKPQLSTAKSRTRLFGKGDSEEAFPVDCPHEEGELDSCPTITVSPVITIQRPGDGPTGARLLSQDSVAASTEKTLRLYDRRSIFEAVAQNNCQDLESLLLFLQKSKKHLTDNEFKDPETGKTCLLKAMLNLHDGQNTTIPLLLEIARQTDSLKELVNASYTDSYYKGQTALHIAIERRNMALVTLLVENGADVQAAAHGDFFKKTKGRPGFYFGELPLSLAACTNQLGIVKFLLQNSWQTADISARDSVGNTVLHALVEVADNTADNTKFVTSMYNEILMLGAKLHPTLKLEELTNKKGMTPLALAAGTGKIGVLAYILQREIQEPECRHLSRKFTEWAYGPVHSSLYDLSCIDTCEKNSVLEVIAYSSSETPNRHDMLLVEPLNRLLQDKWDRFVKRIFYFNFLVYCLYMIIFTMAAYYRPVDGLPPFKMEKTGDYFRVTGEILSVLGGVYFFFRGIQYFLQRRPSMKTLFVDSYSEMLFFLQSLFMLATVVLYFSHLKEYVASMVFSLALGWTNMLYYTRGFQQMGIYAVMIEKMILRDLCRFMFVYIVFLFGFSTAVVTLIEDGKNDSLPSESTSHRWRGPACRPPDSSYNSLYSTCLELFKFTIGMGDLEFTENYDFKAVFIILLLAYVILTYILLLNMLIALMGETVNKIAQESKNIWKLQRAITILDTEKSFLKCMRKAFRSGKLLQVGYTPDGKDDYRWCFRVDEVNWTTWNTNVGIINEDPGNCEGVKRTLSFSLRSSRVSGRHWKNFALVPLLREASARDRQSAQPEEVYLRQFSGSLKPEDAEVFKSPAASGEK
Description: The differential effects of TRPV1 antagonists on capsaicin- or acid-induced responses were verified by ratiometric calcium imaging. Transiently transfected HEK293-F cells expressing human TRPV1 were incubated with 5 μM Fura-2AM for 30 minutes at 37° C. Intracellular calcium concentration was measured on an imaging system consisting of the X-Cite™ 120 Fluorescence Illumination System (EXFO) and a Digital Camera (C4742-95, Hamamatsu Photonics) connected to an Olympus 1×71 microscope. Through the control of Slide Book 4.2 software, fluorescence was measured during excitation at 340 and 380 nm; the ratio of the fluorescence at both excitation wavelengths (F340/F380) was monitored. D-PBS, pH 7.4 (Invitrogen, catalog no. 14287) was used as the extracellular solution. Acidic buffer was prepared by titrating D-PBS, pH 7.4 with 7 N HCl to pH 5.5. Agonists and antagonists were prepared in the pH 7.4 or 5.5 solutions. Rapid solution switch was achieved by using a ValveLink system.
Over the time 1250-second course, the cells were challenged sequentially with solutions containing Example 56 (3 μM), Example 56 (3 μM) plus capsaicin (1 μM), Example 56 (3 μM) plus acid (pH 5.5), or acid (pH 5.5) alone. The black bars above the traces designate addition and duration of solution applications. Spaces between horizontal bars represent periods in which cells were perfused with D-PBS, pH 7.4 alone. […]

[1] = target: T2, human TRPV1 receptor (hTRPV1) (Homo sapiens, UniProt Q8NER1); assay: Capsaicin activation assay (Ca2+ influx, FLIPR); format: cell-based; details: hTRPV1 in 1321N1 cells, 0.05 μM capsaicin
T2 construct: expressed in transfected cells
T2 sequence (Q8NER1 whole entry): as above
Description: Dulbecco's modified Eagle medium (D-MEM) (with 4.5 mg/mL glucose) and fetal bovine serum were obtained from Hyclone Laboratories, Inc. (Logan, Utah). Dulbecco's phosphate-buffered saline (D-PBS) (with 1 mg/mL glucose and 3.6 mg/l Na pyruvate, without phenol red), L-glutamine, hygromycin B, and Lipofectamine® were obtained from Life Technologies (Grand Island, N.Y.). G418 sulfate was obtained from Calbiochem-Novabiochem Corp. (San Diego, Calif.). Capsaicin (8-methyl-N-vanillyl-6-nonenamide) was obtained from Sigma-Aldrich, Co. (St. Louis, Mo.). Fluo-4 AM (N-[4-[6-[(acetyloxy)methoxy]-2,7-difluoro-3-oxo-3H-xanthen-9-yl]-2-[2-[2-[bis[2-[(acetyloxy)methoxy]-2-oxyethyl]amino]-5-methyl-phenoxy[ethoxy]phenyl]-N-[2-[(acetyloxy)methoxy]-2-oxyethyl]-glycine, (acetyloxy)methyl ester) was purchased from Molecular Probes (Eugene, Oreg.).
The cDNAs for the human TRPV1 receptor (hTRPV1) were isolated by reverse transcriptase-polymerase chain reaction (RT-PCR) from human small intestine poly A+ RNA supplied by Clontech (Palo Alto, Calif.) using primers designed surrounding the initiation and termination codons identical to the published sequences (Hayes et al. Pain 2000, 88, 205-215). The resulting cDNA PCR products were subcloned into pClneo mammalian expression vector (Promega) and fully sequenced using fluorescent dye-terminator reagents (Prism, Perkin-Elmer Applied Biosystems Division) and a Perkin-Elmer Applied Biosystems Model 373 DNA sequencer or Model 310 genetic analyzer. Expression plasmids encoding the hTRPV1 cDNA were transfected individually into 1321N1 human astrocytoma cells using Lipofectamine®. Forty-eight hours after transfection, the neomycin-resistant cells were selected with growth medium containing 800 μg/mL Geneticin (Gibco BRL). Surviving individual colonies were isolated and screened for TRPV1 receptor activity. Cells expressing recombinant homomeric TRPV1 receptors were maintained at 37° C. in D-MEM containing 4 mM L-glutamine, 300 μg/mL G418 (Cal-biochem) and 10% fetal bovine serum under a humidified 5% CO2 atmosphere.
The functional activity of compounds at the TRPV1 receptor was determined with a Ca^2+ influx assay and measurement of intracellular Ca^2+ levels ([Ca^2+]i). All compounds were tested over an 11-point half-log concentration range. Compound solutions were prepared in D-PBS (4× final concentration), and diluted serially across 96-well v-bottom tissue culture plates using a Biomek 2000 robotic automation workstation (Beckman-Coulter, Inc., Fullerton, Calif.). A 0.2 μM solution of the TRPV1 agonist capsaicin was also prepared in D-PBS. The fluorescent Ca^2+ chelating dye Fluo-4 AM was used as an indicator of the relative levels of [Ca^2+]i in a 96-well format using a Fluorescence Imaging Plate Reader (FLIPR)(Molecular Devices, Sunnyvale, Calif.). Cells were grown to confluency in 96-well black-walled tissue culture plates. Then, prior to the assay, the cells were loaded with 100 μL per well of Fluo-4 AM (2 μM, in D-PBS) for 1-2 hours at 23° C. Washing of the cells was performed to remove extracellular Fluo-4 AM (2×1 mL D-PBS per well), and afterward, the cells were placed in the reading chamber of the FLIPR instrument. 50 μL of the compound solutions were added to the cells at the 10 second time mark of the experimental run. Then, after a 3-minute time delay, 50 μL of the capsaicin solution was added at the, 190 second time mark (0.05 μM final concentration)(final volume=200 μL) to challenge the TRPV1 receptor. Time length of the experimental run was 240 seconds. Fluorescence readings were made at 1 to 5 second intervals over the course of the experimental run. The peak increase in relative fluorescence units (minus baseline) was calculated from the 190 second time mark to the end of the experimental run, and expressed as a percentage of the 0.05 μM capsaicin (control) response. […]

[2] = Rat telemetry protocol, core body temperature; format: in vivo; details: core body temperature of rats one hour post dosing, 100 μmol/kg p.o., relative to vehicle
Description: Male, Sprague Dawley rats, 225-250 grams were anesthetized with Sevoflurane (Abbott Laboratories). Rats were placed on a heating pad and covered with a sterile surgical drape. A ventral midline abdominal incision was made and sterile cotton tip applicators were used to gently move internal tissue and expose the abdominal aorta for implantation of the telemetry catheter (Data Sciences International; TL11M2-050-PXT). Blood flow was temporarily stopped to the lower extremities (5-7 min) with Diffenbach clamps to allow the insertion of the telemetry catheter into the abdominal aorta. Once inserted, a sterile cellulose patch was placed over the catheter/aorta and secured using a small amount of tissue adhesive (Vetbond, 3M). Once catheter placement was complete, the clamps were removed and blood flow was restored to the lower extremities. Thetransmitter was placed in the intraperitoneal cavity. The transmitter suture rib was sewn into the abdominal sutures to secure it in place. The skin was closed using sterile wound clips and the animal removed from Sevoflurane. Buprenex ([…] s.c.; Phoenix) was administered for post-operative analgesia. Animals were maintained on a heating pad until ambulatory, and then individually housed with food and water ad lib. Surgical staples were removed after 7-10 days post-implantation. Rats were allowed a 2-week post-surgical recovery period before treatment with test compound. Oral dosing (p.o.) was at time zero, with rats receiving a single dose of vehicle (10% EtOH, 20% Tween-80, 70% PEG-400) or a 100 μmol/kg dose of compound dissolved in vehicle. Temperature measurements were recorded every 15 minutes for the duration of the study (24 hours).
Representative compounds described herein have the novel property of having limited transient temperature effect on core body temperature of a mammal (e.g. rats). For example, compounds tested alter core body temperature of rats by less than about +0.5° C. at about 1 hour after administration of a single dose (100 μmol/kg) of the test compounds orally, for example, in the range from about −2.5° C. to less than about +0.5° C., from about −0.5° C. to less than about +0.5° C.; or from about −0.3° C. to about +0.3° C.
The term “core body temperature” as used herein, means the temperature measured in the intraperitoneal cavity.

| SMILES | block of TRPV1-mediated increase in intracellular calcium concentration in response to pH 5.5 (human TRPV1) | block of TRPV1-mediated increase in intracellular calcium concentration in response to capsaicin (human TRPV1) | IC50 [1] [µM] | Δ Temp (° C.) [2] [°C] |
| --- | --- | --- | --- | --- |
| CC(=O)Nc1nc2c(Oc3cc(N4CCN(C(C)c5ccc(F)cc5)CC4)ncn3)cccc2s1 (centres unmarked) [AMG 628, reference compound] | completely blocked | completely blocked | – | – |
| CCC1(CC)C[C@@H](NC(=O)Nc2cccc3c2cnn3C)c2cc(F)ccc2O1 [Example 26, N-[(4R)-2,2-diethyl-6-fluoro-3,4-dihydro-2H-chromen-4-yl]-N′-(1-methyl-1H-indazol-4-yl)urea] | did not completely block | completely blocked | 0.05 | 0.1 |
| CCC1(CC)C[C@@H](NC(=O)Nc2cccc3c2cnn3C)c2cccc(OC(F)(F)F)c2O1 [Example 55, N-[(4R)-2,2-diethyl-8-(trifluoromethoxy)-3,4-dihydro-2H-chromen-4-yl]-N′-(1-methyl-1H-indazol-4-yl)urea] | did not completely block | completely blocked | 0.016 | 0.3 |
| CCCC1(CCC)C[C@@H](NC(=O)Nc2cccc3c2cnn3C)c2cc(F)ccc2O1 [Example 61, N-[(4R)-6-fluoro-2,2-dipropyl-3,4-dihydro-2H-chromen-4-yl]-N′-(1-methyl-1H-indazol-4-yl)urea] | did not completely block | completely blocked | 0.031 | 0.3 |
